This assay concerns the target phosphorylated form of full length BTK (active BTK) (Homo sapiens (Human), UniProt Q06187). The experiment in a line: Mobility shift assay (MSA, Caliper LabChip), active BTK assay. The conditions noted are these: Assay type B (MSA using active BTK). It counts as biochemical. As to the method: The active BTK assay consists of phosphorylated form of full length BTK. […] The enzyme inhibitor complexes is incubated, before the kinase activation reaction is initiated.
Mobility Shift Assay (MSA)
The active BTK assay consisted of phosphorylated form of full length BTK. […] The enzyme inhibitor complexes was incubated for 30 minutes at the room temperature and the kinase activation reaction was initiated by the addition of 1 μM Srctide peptide substrate and […].

Chain of phosphorylated form of full length BTK (active BTK) (Q06187 whole entry): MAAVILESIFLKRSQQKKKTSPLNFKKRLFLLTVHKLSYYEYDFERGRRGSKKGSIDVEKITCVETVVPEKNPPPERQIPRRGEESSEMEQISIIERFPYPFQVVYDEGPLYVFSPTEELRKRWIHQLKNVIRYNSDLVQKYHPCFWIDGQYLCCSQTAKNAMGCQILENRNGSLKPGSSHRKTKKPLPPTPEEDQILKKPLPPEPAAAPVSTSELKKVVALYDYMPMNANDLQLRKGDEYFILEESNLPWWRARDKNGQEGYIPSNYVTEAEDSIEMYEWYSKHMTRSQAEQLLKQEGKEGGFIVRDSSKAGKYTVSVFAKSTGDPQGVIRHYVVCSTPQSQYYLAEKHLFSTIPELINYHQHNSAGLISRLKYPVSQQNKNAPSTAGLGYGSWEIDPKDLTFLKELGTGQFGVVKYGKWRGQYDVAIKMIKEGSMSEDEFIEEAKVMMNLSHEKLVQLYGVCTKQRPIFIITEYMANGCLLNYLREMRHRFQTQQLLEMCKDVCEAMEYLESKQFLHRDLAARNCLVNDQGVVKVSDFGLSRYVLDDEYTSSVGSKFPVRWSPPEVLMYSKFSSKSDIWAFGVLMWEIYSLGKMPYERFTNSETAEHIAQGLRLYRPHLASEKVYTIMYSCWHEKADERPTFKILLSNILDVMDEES

In the case of `N[C@H]1C[C@@H](Nc2ncnc3[nH]cc(C(=O)c4ccc(Oc5ccccc5)cc4)c23)C1` [Compound I-190, (4-((cis-3-aminocyclobutyl)amino)-7H-pyrrolo[2,3-d]pyrimidin-5-yl)(4-phenoxyphenyl)methanone], the IC50 was determined as 17 nM. To `COC1CN([C@H]2CC[C@H](Nc3ncnc4[nH]cc(C(=O)c5ccccc5Cl)c34)CC2)C1` [Compound I-110, (2-chlorophenyl)(4-((trans-4-(3-methoxyazetidin-1-yl)cyclohexyl)amino)-7H-pyrrolo[2,3-d]pyrimidin-5-yl)methanone] belongs 16 nM. For `CC(=O)N[C@@H](C)[C@@H]1CC[C@@H](Nc2ncnc3[nH]cc(C(=O)c4ccccc4C)c23)CO1` [Compound I-117, N—((S)-1-((2S,5R)-5-((5-(2-methylbenzoyl)-7H-pyrrolo[2,3-d]pyrimidin-4-yl)amino)tetrahydro-2H-pyran-2-yl)ethyl)acetamide] the value was 5.9 nM; for `O=C(c1ccc(Oc2ccccc2)cc1)c1c[nH]c2ncnc(N[C@@H]3CC[C@@H](C(=O)NC[C@@H](O)CO)OC3)c12` [Compound I-176, (2S,5R)—N—((R)-2,3-dihydroxypropyl)-5-((5-(4-phenoxybenzoyl)-7H-pyrrolo[2,3-d]pyrimidin-4-yl)amino)tetrahydro-2H-pyran-2-carboxamide], 2.5 nM; for `CC(=O)N[C@H]1C[C@@H](Nc2ncnc3[nH]cc(C(=O)c4ccc(Oc5ccccc5)cc4)c23)C1` [Compound I-196, N-(cis-3-((5-(4-phenoxybenzoyl)-7H-pyrrolo[2,3-d]pyrimidin-4-yl)amino)cyclobutyl)acetamide], 3.2 nM. As to `CN(C)C[C@]1(O)CC[C@@H](Nc2ncnc3[nH]cc(C(=O)c4ccc(Oc5ccccc5)cc4Cl)c23)CC1` [Compound I-178, (2-chloro-4-phenoxyphenyl)(4-((cis-4-((dimethylamino)methyl)-4-hydroxycyclohexyl)amino)-7H-pyrrolo[2,3-d]pyrimidin-5-yl)methanone], the IC50 was found to be 2.2 nM. `CC(=O)N[C@H](C)[C@@H]1CC[C@@H](Nc2ncnc3[nH]cc(C(=O)c4ccc(Oc5ccccc5)cc4Cl)c23)CO1` [Compound I-195, N—((R)-1-((2S,5R)-5-((5-(2-chloro-4-phenoxybenzoyl)-7H-pyrrolo[2,3-d]pyrimidin-4-yl)amino)tetrahydro-2H-pyran-2-yl)ethyl)acetamide]: the IC50 was determined as 2.2 nM.

Turning to `CC(=O)N[C@@H](C)[C@@H]1CC[C@@H](Nc2ncnc3[nH]cc(C(=O)c4ccc(Oc5ccccc5)cc4C)c23)CO1` [Compound I-204, N-((S)-1-((2S,5R)-5-((5-(2-methyl-4-phenoxybenzoyl)-7H-pyrrolo[2,3-d]pyrimidin-4-yl)amino)tetrahydro-2H-pyran-2-yl)ethyl)acetamide], the IC50 stood at 1.1 nM. In the case of `CC(=O)N[C@H]1C[C@H](Nc2ncnc3[nH]cc(C(=O)c4ccc(Oc5ccccc5)cc4)c23)C1` [Compound I-199, N-(trans-3-((5-(4-phenoxybenzoyl)-7H-pyrrolo[2,3-d]pyrimidin-4-yl)amino)cyclobutyl)acetamide], the IC50 was 6.8 nM. Consider `Cc1cc(Oc2ccccc2)ccc1C(=O)c1c[nH]c2ncnc(N[C@@H]3CC[C@@H]([C@@H](C)O)OC3)c12` [Compound I-197, (4-(((3R,6S)-6-((R)-1-hydroxyethyl)tetrahydro-2H-pyran-3-yl)amino)-7H-pyrrolo[2,3-d]pyrimidin-5-yl)(2-methyl-4-phenoxyphenyl)methanone], for which the IC50 is 1.6 nM. Regarding `C[C@H](O)C(=O)N[C@H]1CC[C@@H](Nc2ncnc3[nH]cc(C(=O)c4ccc(Oc5ccccc5)cc4)c23)CC1` [Compound I-202, (S)-2-hydroxy-N-(cis-4-((5-(4-phenoxybenzoyl)-7H-pyrrolo[2,3-d]pyrimidin-4-yl)amino)cyclohexyl)propanamide], the IC50 worked out at 1 nM.

The values are drawn from patent US11020398B2, “Amino-pyrrolopyrimidinone compounds and methods of use thereof” (ArQule, Inc., priority 2016, dated 2021).
